Experimental data from patent US12048695B2, “Immediate release pharmaceutical formulation of 4-[3-(4-cyclopropanecarbonyl-piperazine-1-carbonyl)-4-fluoro-benzyl]-2H-phthalazin-1-one” (KUDOS PHARMACEUTICALS LIMITED, priority 2008, dated 2024).
Values after ≈ are worked out from the molar mass of the structure shown. Read-outs that look alike come from different tables or passages of the source. One block for each compound: values may come before it.

Key:
[1] = Solubility in real and simulated gastrointestinal media; type: physicochemical; settings: thermodynamic from solid; for solubility thermodynamic at 24 hr: read-out: Equilibrium solubility, 24 hr
Experimental: The solubility of Compound 1 was also measured in real and simulated gastrointestinal media (Table 2).

[2] = Solubility in water and pH buffered solutions; type: physicochemical
Experimental: The solubility of crystalline Form A of Compound 1 was measured in water and a range of pH buffered solutions representing the physiological pH range. The physical form of any undissolved (or precipitated) Compound 1 was not assessed by XRPD after solubility determination. The Form A crystalline form of Compound 1 is disclosed in WO2008/047082.

P-gp = assay: Permeability across Caco-2 monolayers; type: in vitro ADME; settings: human, Caco-2, 10 μM
[3] = Permeability across Caco-2 monolayers; type: in vitro ADME; settings: human, Caco-2; for efflux ratio / Papp A→B / Papp B→A: marker compound, concentration not given
Caco-2 monolayers = assay: Permeability across Caco-2 monolayers; type: in vitro ADME
pKa = type: physicochemical; settings: phthalazinone moiety
Excerpt: 4-[3-(4-cyclopropanecarbonyl-piperazine-1-carbonyl)-4-fluoro-benzyl]-2H-phthalazin-1-one (Compound 1) is a weakly acidic compound with a pKa of about 12.5 (phthalazinone moiety). It is essentially neutral across the physiological pH range.

[4] = In vitro dissolution of Compound 1 preparations (USP Apparatus I, TRIS buffer pH 7.2); type: physicochemical
Experimental: Dissolution was performed according to the general procedure of the United States Pharmacopeia Apparatus I (Basket). An amount of material containing approximately 100 mg of Compound 1 was weighed accurately then transferred to a dissolution vessel containing 500 mL of TRIS buffer (0.05M tris(hydroxymethyl)aminomethane solution adjusted to pH 7.2 with hydrochloric acid) maintained at 37° C. and stirred at 100 rpm. […] Compound 1 concentration in the filtrate was determined by ultraviolet spectroscopy at a wavelength of 278 nm.

SMILES: O=C(c1cc(Cc2n[nH]c(=O)c3ccccc23)ccc1F)N1CCN(C(=O)C2CC2)CC1 [Compound 1 (Form A), 4-[3-(4-cyclopropanecarbonyl-piperazine-1-carbonyl)-4-fluoro-benzyl]-2H-phthalazin-1-one]
solubility thermodynamic at 24 hr ([1]; Fasted State Simulated Intestinal Fluid (FaSSIF), fassif): 130 µg/mL (≈ 299 µM)
solubility thermodynamic at 24 hr ([1]; Fed State Simulated Intestinal Fluid (FeSSIF), fessif): 200 µg/mL (≈ 460 µM)
solubility thermodynamic at 24 hr ([1]; Simulated Gastric Fluid (SGF), simulated gastric fluid): 120 µg/mL (≈ 276 µM)
solubility thermodynamic at 24 hr ([1]; human, Human Gastric Fluid (HGF), plasma or biological fluid): 150 µg/mL (≈ 345 µM)
solubility thermodynamic at 24 hr ([1]; human, Human Intestinal Fluid (HIF), plasma or biological fluid): 170 µg/mL (≈ 391 µM)
solubility at 1 hr ([2]; aqueous buffer, thermodynamic from solid, 0.1M NaOH, pH 12.5): 650 µg/mL (≈ 1500 µM)
solubility at 24 hr ([2]; aqueous buffer, thermodynamic from solid, 0.1M NaOH, 24 hr, pH 12.4): 599 µg/mL (≈ 1380 µM)
solubility at 1 hr ([2]; aqueous buffer, thermodynamic from solid, pH 3 Citrate Buffer, pH 2.9): 124 µg/mL (≈ 285 µM)
solubility at 24 hr ([2]; aqueous buffer, thermodynamic from solid, pH 3 Citrate Buffer, 24 hr, pH 2.9): 112 µg/mL (≈ 258 µM)
solubility at 1 hr ([2]; aqueous buffer, thermodynamic from solid, pH 6.8 Phosphate Buffer, pH 6.9): 111 µg/mL (≈ 255 µM)
solubility at 24 hr ([2]; aqueous buffer, thermodynamic from solid, pH 6.8 Phosphate Buffer, 24 hr, pH 6.9): 96 µg/mL (≈ 221 µM)
solubility at 1 hr ([2]; aqueous buffer, thermodynamic from solid, pH 9 Buffer, pH 8.9): 116 µg/mL (≈ 267 µM)
solubility ([2]; pH 9 Buffer, 24 hr, pH 8.8): 102 µg/mL (≈ 235 µM)
solubility at 1 hr ([2]; simulated gastric fluid, thermodynamic from solid, 0.1M HCl, pH 1.2): 128 µg/mL (≈ 295 µM)
solubility at 24 hr ([2]; simulated gastric fluid, thermodynamic from solid, 0.1M HCl, 24 hr, pH 1.2): 114 µg/mL (≈ 262 µM)
solubility at 1 hr ([2]; thermodynamic from solid, Water, pH 5.6): 124 µg/mL (≈ 285 µM)
solubility at 24 hr ([2]; thermodynamic from solid, Water, 24 hr, pH 6.0): 109 µg/mL (≈ 251 µM)

SMILES: O=C(c1cc(Cc2n[nH]c(=O)c3ccccc23)ccc1F)N1CCN(C(=O)C2CC2)CC1 [Compound 1, 4-[3-(4-cyclopropanecarbonyl-piperazine-1-carbonyl)-4-fluoro-benzyl]-2H-phthalazin-1-one]
solubility ([1]; fed state simulated intestinal fluid, fessif, read-out: highest solubility): 200 µg/mL (≈ 460 µM)
solubility at 24 hr ([1]; human, real and simulated gastrointestinal media, fassgf or other biorelevant): 120 to 200 µg/mL (≈ 276 to 460 µM)
efflux ratio at 10 μM (P-gp): 6.5
Papp A→B at 10 μM (P-gp; n = 3, ±S.D.): 3.67 ± 0.34 ×10⁻⁶ cm/s
Papp B→A at 10 μM (P-gp; n = 3, ±S.D.): 23.7 ± 2.84 ×10⁻⁶ cm/s
Papp at 10 μM [3]: 3.67 ×10⁻⁶ cm/s
efflux ratio at 260 μM ([3]; 260 μM): 2.3
Papp A→B at 260 μM ([3]; 260 μM, n = 3, ±S.D.): 7.75 ± 0.88 ×10⁻⁶ cm/s
Papp B→A at 260 μM ([3]; 260 μM, n = 3, ±S.D.): 17.8 ± 1.19 ×10⁻⁶ cm/s
efflux ratio at 700 μM ([3]; 700 μM): 1.8
Papp A→B at 700 μM ([3]; 700 μM, n = 3, ±S.D.): 8.4 ± 0.41 ×10⁻⁶ cm/s
Papp B→A at 700 μM ([3]; 700 μM, n = 3, ±S.D.): 15.1 ± 1.42 ×10⁻⁶ cm/s
permeability (Caco-2 monolayers; compared to the high permeability marker propranolol): moderately permeable
human Peff (Caco-2 monolayers; equated from Caco-2 Papp): 140 ×10⁻⁶ cm/s
efflux by P-gp (Caco-2 monolayers; low concentrations (10 μM), inhibited by Elacridar): propensity for efflux by P-gp
solubility thermodynamic ([2]; aqueous buffer, thermodynamic from solid, range of aqueous buffers (pH 1-9), read-out: aqueous equilibrium solubility): ~100 µg/mL (≈ 230 µM)
pKa (pKa): ~12.5

SMILES: C[C@H]1O[C@@H](O[C@H]2[C@@H](O)C[C@H](O[C@H]3[C@@H](O)C[C@H](O[C@H]4CC[C@@]5(C)[C@H](CC[C@@H]6[C@@H]5C[C@@H](O)[C@]5(C)[C@@H](C7=CC(=O)OC7)CC[C@]65O)C4)O[C@@H]3C)O[C@@H]2C)C[C@H](O)[C@@H]1O [Digoxin, digoxin, reference compound]
efflux ratio [3]: 9.1
Papp A→B ([3]; n = 3, ±S.D.): 1.34 ± 0.03 ×10⁻⁶ cm/s
Papp B→A ([3]; n = 3, ±S.D.): 12.2 ± 1.37 ×10⁻⁶ cm/s

Now from value to compound:

Dissolution (% Release) ([4]; 15 min): 15%
Dissolution (% Release) ([4]; 30 min): 28%
Dissolution (% Release) ([4]; 45 min): 43%
Dissolution (% Release) ([4]; 60 min): 51%
Dissolution (% Release) ([4]; 75 min): 58%
Dissolution (% Release) ([4]; 90 min): 62%
Dissolution (% Release) ([4]; 105 min): 68%
Dissolution (% Release) ([4]; 120 min): 71%
SMILES: O=C(c1cc(Cc2n[nH]c(=O)c3ccccc23)ccc1F)N1CCN(C(=O)C2CC2)CC1 [Drug only]

efflux ratio [3]: 1.1
Papp A→B ([3]; n = 3, ±S.D.): 20 ± 2.57 ×10⁻⁶ cm/s
Papp B→A ([3]; n = 3, ±S.D.): 21.5 ± 0.33 ×10⁻⁶ cm/s
SMILES: CC(C)NCC(O)COc1cccc2ccccc12 (stereo not drawn) [Propranolol, propranolol, reference compound]
